In one assay the test system is HCC1806 Ub-PCNA (USP1). Nature of the assay: USP1 Western Blot Protocol (HCC1806 Ub-PCNA). Type of assay: cell-based. The settings on record: HCC1806 cells, 4 hours. From the text:
USP1 Western Blot Protocol (HCC1806 Ub-PCNA)
USP1 is a deubiquitinase that catalyze the hydrolysis of iso-peptide bond between ubiquitin and the substrate proteins. Inhibition of USP1 activity results in accumulation of mono-ubiquitinated substrate such as Ub-PCNA. A cell assay was set up to determine the cellular potency of USP1 compounds by monitoring the accumulation of Ub-PCNA. The signal intensity was detected by a specific Ub-PCNA antibody through Western-blot analysis.
The assay was initiated by seeding HCC1806 cells (ATCC, CRL-2335) into 6-well plates (Corning, 3516), with a seeding density of 3×10^5 cells per well and 2 mL RPMI 1640 culture medium (Gibco, 11875119). The plates were incubated overnight at 37° C. and 5% CO2. Compounds, solubilized in DMSO (Solarbio, D8371) as 1 mM stock solution, were diluted in 4-fold steps for 5-cencentration point dose response plus a no-compound DMSO control. Diluted compounds (2 μL) were transferred into assay wells (with a final DMSO concentration of −0.1%) and the resulted assay plates incubated at 37° C. and 5% CO2 for 4 hours. After aspiration of culture medium, 100 μL of 4° C. RIPA lysis buffer (Boston BioProducts, BP-115D) supplemented with vendor recommended concentrations of protease (Roche, 4693116001) and phosphatase (Roche, 4906837001) inhibitor, was added to each well and incubated for 10 minutes on the ice. Cells were scrapped loose from the bottom of well with a scraper (Corning, 3008), transferred into a 600 μL EP tube, sonicated using Ultrasound (Qsonica, Q800R3, with 30% energy, 5-second pulse on/off cycles at 4° C., for total 2 minutes), centrifuged 13,000 rpm for 15 minutes at 4° C., and then the supernatant transferred to a new 600 μL EP tube. The total protein concentration was determined using BCA kit following vendor recommended protocol (Solarbio, PC0020-500). Loading samples were prepared by diluting the total protein concentration to 1.5 μg/μL with 5 X NuPAGE SDS loading buffer (Beyotime, P0015L) and RIPA lysis buffer, and boiling at 100° C. for 5 minutes.
15 μg protein from each sample was loaded onto NuPAGE® Novex 4-12% Bis-Tris Midi Gel, 26 W (Invitrogen, WG1403BOX) and electrophoresis was run at 80 V for 30 minutes and 120 V till the end using 1x NuPAGE® MOPS SDS Running Buffer (Novex, NP0001). The gel was then transferred to nitrocellulose membrane using the dry transfer system (iBlot 2 Transfer Stacks, nitrocellulose, D323001) with a program consisting of 20 V for 1 minute, 23 V for 4 minutes and 25 V for 2 minutes. After the membrane was blocked with 5% BSA (Solarbio, A8020) in 1X TBST (CST, 9997S) for 1 hour at room temperature, specific antibodies (Ubiquityl-PCNA antibody (CST, 13439) at 1:500 dilution, PCNA antibody (Santa Cruz, sc-56) at 1:1000 dilution, and GAPDH (CST, 5174) at 1:2000 dilution in 1 X TBST containing 1% BSA) were added and incubated at room temperature for 1.5 hours. After washing the Nitrocellulose membranes with 1 X TBST for 3 times, 10 minutes each time at room temperature, fluorescently labeled secondary antibodies (anti-rabbit IgG, Licor, 926-32211; anti-mouse IgG, LI-COR, 926-68070) at 1:5000 dilution in 1 X TBST containing 1% BSA were added and incubated for 1 hour at room temperature in the dark. The membranes were then rinsed with 1 X TBST and immersed in the RO water. Imaging of band intensity was acquired with Li—COR imaging system (Li—COR, Odyssey clx ES).
Percentage of USP1 inhibition (% Vehicle) was calculated by using following equation examining Ub-PCNA upregulation:
And IC50 was calculated using four-parameter logistic fitting program • Y=Bottom+(Top-Bottom)/(1+10 {circumflex over (()}(LogIC50−X)*Hill Slope)) • X=Log of dose or concentration
(§1) Certain compounds were tested in the assays.
For orientation: In western blotting, separated proteins are transferred to a membrane and probed.

A further assay has as its system MDA-MB-436 cells. Description: CTG Protocol (MDA-MB-436 GI50), antiproliferative activity. Type of assay: cell-based, human. Particulars: MDA-MB-436 cells (BRCA1 mutation), 7-day incubation, CellTiter-Glo. The procedure:
CTG Protocol (MDA-MB-436 GI50)
Antiproliferative activity of USP1 inhibitors was determined using breast cancer cell line MDA-MB-436 that harbors BRCA1 mutation. MDA-MB-436 cells (ATCC, HTB-130) was seeded with a seeding density of 1000 cells per well and 95 μL DMEM medium (Gibco, 10566016) into 96-well cell plates (Corning, 3610), and incubated overnight at 37° C. and 5% CO2. Compounds were solubilized in DMSO (Solarbio, D8371) as 10 mM stock solution, and then series diluted (3 folds) with DMSO for 9-point dose-response testing. The resulted series dilutions were then jump-diluted 50-fold by cell culture medium to afford the 20×stock solutions (containing 2% DMSO). Treatment was initiated by adding 5 μL of 20×stock solution to the assay plate and incubated at 37° C. and 5% CO2. At the end of 7-day incubation, cell assay plates were removed from incubation and equilibrated to room temperature (20 min). Then 100 μL of CellTiter-Glo (Promega, G9243) reagent, prepared per manufacturer's protocol, was added to each well, and the resulted plates were centrifuged 1,000 rpm for 1 minute, incubated at room temperature in the dark for 20 minutes, sealed with Perkin Elmer sticky film, and the luminescence signal read by Envision (Perkin Elmer).
Data analysis • a) % Inhibition was calculated using following equation: […]
X: compound concentration; Y: % Inhibition
as §1
For orientation: ATP-based viability assays read luminescence as a measure of living cells.

SMILES strings stand for the structures.

The term IC50 denotes the concentration that inhibits the measured activity by half. A low value points to higher potency. Usually GI50 stands for the concentration at which growth is held to half of that of the control. A high value points to lower sensitivity of the cells. In turn, `COc1ncnc(C2CC2)c1-c1ncc2cc(-c3cnnn3C)c(=O)n(Cc3ccc(-c4nc(C(F)(F)F)cn4C4CC4)cc3)c2n1` [Compound I-159, 8-({4-[1-cyclopropyl-4-(trifluoromethyl)imidazol-2-yl]phenyl}methyl)-2-(4-cyclopropyl-6-methoxypyrimidin-5-yl)-6-(3-methyl-1,2,3-triazol-4-yl)pyrido[2,3-d]pyrimidin-7-one] had an IC50 with HCC1806 Ub-PCNA (USP1) (Homo sapiens) below 10 nM. The compound also displayed a GI50 in the assay on MDA-MB-436 cells (Homo sapiens, 168 h) of 10 to 100 nM. The matching figures for `COc1ncnc(C2CC2)c1-c1ncc2cc(-c3cncc(F)c3)c(=O)n(Cc3ccc(-c4nc(C(F)(F)F)cn4C4CC4)cc3)c2n1` [Compound I-162]: below 10 nM and 10 to 100 nM. The matching figures for `COc1ncnc(C2CC2)c1-c1ncc2ccc(=O)n(Cc3ccc(-c4nc(C(F)(F)F)cn4C)c(F)c3)c2n1` [Compound 72, 2-(4-Cyclopropyl-6-Methoxypyrimidin-5-Yl)-8-({3-Fluoro-4-[1-Methyl-4-(Trifluoromethyl)Imidazol-2-Yl]Phenyl}Methyl)Pyrido[2,3-d]Pyrimidin-7-One]: 10 to 100 nM and below 10 nM. For `COc1ncnc(C2CC2)c1-c1ncc2ccc(=O)n(Cc3ccc(-c4ncc(F)cc4OC(C)C)cc3)c2n1` [Compound 67, 2-(4-cyclopropyl-6-methoxypyrimidin-5-yl)-8-{[4-(5-fluoro-3-isopropoxypyridin-2-yl)phenyl]methyl}pyrido[2,3-d]pyrimidin-7-one] the same measures were 10 to 100 nM and 10 to 100 nM. `COc1nn(C)cc1-c1cc2cnc(-c3c(OC)ncnc3C3CC3)nc2n(Cc2ccc(-c3nc(C(F)(F)F)cn3C3CC3)cc2)c1=O` [Compound I-164] displayed an IC50 with HCC1806 Ub-PCNA (USP1) (Homo sapiens) of 10 to 100 nM. In addition, the GI50 in the assay on MDA-MB-436 cells (Homo sapiens, 168 h) lay within 10 to 100 nM.

In turn, `COc1ncnc(C2CC2)c1-c1ncc2nc(-c3cn(C)cn3)c(=O)n(Cc3ccc(-c4nc(C(F)(F)F)cn4C4CC4)cc3)c2n1` [Compound I-160, 8-({4-[1-Cyclopropyl-4-(Trifluoromethyl)Imidazol-2-Yl]Phenyl}Methyl)-2-(4-Cyclopropyl-6-Methoxypyrimidin-5-Yl)-6-(1-Methylimidazol-4-Yl)Pteridin-7-One] gave a half-inhibitory concentration (IC50) with HCC1806 Ub-PCNA (USP1) (Homo sapiens) of 10 to 100 nM. Moreover, in the assay with MDA-MB-436 cells (Homo sapiens, 168 h), the GI50 was in the range of 10 to 100 nM. `COc1ncnc(C2CC2)c1-c1ncc2ccc(=O)n(Cc3ccc(-c4nc(C(F)(F)F)ccc4OC(C)C)cc3)c2n1` [Compound 75, 2-(4-Cyclopropyl-6-Methoxypyrimidin-5-Yl)-8-({4-[3-Isopropoxy-6-(Trifluoromethyl)Pyridin-2-Yl]Phenyl}Methyl)Pyrido[2,3-d]Pyrimidin-7-One] had a half-inhibitory concentration (IC50) with HCC1806 Ub-PCNA (USP1) (Homo sapiens) of 10 to 100 nM. The compound further came in with a GI50 in the assay with MDA-MB-436 cells (Homo sapiens, 168 h) of 10 to 100 nM. Regarding `COc1ncnc(C2CC2)c1-c1ncc2cc(-c3cn(C)cn3)c(=O)n(Cc3ccc(-c4nc(C(F)(F)F)cn4C4CC4)cc3)c2n1` [Compound I-161, 8-({4-[1-cyclopropyl-4-(trifluoromethyl)imidazo]-2-yl]phenylmethyl)-2-(4-cyclopropyl-6-methoxypyrimidin-5-yl)-6-(1-methylimidazol-4-yl)pyrido[2,3-d]pyrimidin-7-one], the 50% inhibitory concentration (IC50) with HCC1806 Ub-PCNA (USP1) (Homo sapiens) is below 10 nM. This compound yielded a GI50 with MDA-MB-436 cells (Homo sapiens, 168 h) of 10 to 100 nM. The matching figures for `COc1ncnc(C2CC2)c1-c1ncc2ccc(=O)n(C(C)c3ccc(-c4nc(C(F)(F)F)cn4C)cc3)c2n1` (stereo not drawn) [Compound I-43, 2-(4-Cyclopropyl-6-Methoxypyrimidin-5-Yl)-8-(1-{4-[1-Methyl-4-(Trifluoromethyl)Imidazol-2-Yl]Phenyl}Ethyl)Pyrido[2,3-d]Pyrimidin-7-One]: 10 to 100 nM and 10 to 100 nM. The matching figures for `COc1ncnc(C2CC2)c1-c1ncc2cc(-c3c(C)cnn3C)c(=O)n(Cc3ccc(-c4nc(C(F)(F)F)cn4C(C)C)cc3)c2n1` [Compound I-165, 2-(4-Cyclopropyl-6-Methoxypyrimidin-5-Yl)-6-(2,4-Dimethylpyrazol-3-Yl)-8-({4-[1-Isopropyl-4-(Trifluoromethyl)Imidazol-2-Yl]Phenyl}Methyl)Pyrido[2,3-d]Pyrimidin-7-One]: 10 to 100 nM and 10 to 100 nM.

The compound `COc1ncnc(C2CC2)c1-c1ncc2cc(-c3nccn3C)c(=O)n(Cc3ccc(-c4nc(C(F)(F)F)cn4C4CC4)cc3)c2n1` [Compound I-158] gave an IC50 in the assay with HCC1806 Ub-PCNA (USP1) (Homo sapiens) of 10 to 100 nM. In the assay on MDA-MB-436 cells (Homo sapiens, 168 h), this compound yielded a 50% growth inhibitory concentration (GI50) of 10 to 100 nM. Turning to `COc1ncnc(C2CC2)c1-c1ncc2ccc(=O)n(C(C)c3ccc(-c4nc(C(F)(F)F)cn4C)cc3)c2n1` (stereo not drawn) [Compound 63], the concentration for half-maximal inhibition (IC50) in the assay with HCC1806 Ub-PCNA (USP1) was 10 to 100 nM. Further, the GI50 in the assay with MDA-MB-436 cells lay in the range of 10 to 100 nM.

`COc1ncnc(C2CC2)c1-c1ncc2cc(-c3nnc(C)o3)c(=O)n(Cc3ccc(-c4nc(C(F)(F)F)cn4C4CC4)cc3)c2n1` [Compound I-154] displayed an IC50 with HCC1806 Ub-PCNA (USP1) (Homo sapiens) of 10 to 100 nM. Further, in the assay on MDA-MB-436 cells (Homo sapiens, 168 h), the GI50 fell in the range of 10 to 100 nM. For the compound `Cc1cnn(C(C)C)c1-c1ncc2ccc(=O)n(Cc3ccc(-c4nc(C(F)(F)F)cn4C)cc3)c2n1` [Compound I-45, 2-(2-isopropyl-4-methylpyrazol-3-yl)-8-({4-[1-methyl-4-(trifluoromethyl)imidazol-2-yl]phenyl}methyl)pyrido[2,3-d]pyrimidin-7-one], the IC50 in the assay on HCC1806 Ub-PCNA (USP1) (Homo sapiens) is 10 to 100 nM. Further, the concentration for 50% growth inhibition (GI50) with MDA-MB-436 cells (Homo sapiens, 168 h) lay within 10 to 100 nM. For the compound `[2H]C([2H])([2H])Oc1ncnc(C2CC2)c1-c1ncc2ccc(=O)n(C([2H])([2H])c3ccc(-c4nc(C(F)(F)F)cn4C([2H])([2H])[2H])cc3)c2n1` [Compound 57, 2-[4-cyclopropyl-6-(2H3)methoxypyrimidin-5-yl]-8-({4-[1-(2H3)methyl-4-(trifluoromethyl)imidazol-2-yl]phenyl}(2H2)methyl)pyrido[2,3-d]pyrimidin-7-one], the IC50 in the assay on HCC1806 Ub-PCNA (USP1) (Homo sapiens) is below 10 nM. The compound further displayed a concentration for 50% growth inhibition (GI50) in the assay on MDA-MB-436 cells (Homo sapiens, 168 h) below 10 nM.

Consider `COc1ncnc(C2CC2)c1-c1ncc2ccc(=O)n(Cc3ccc(-c4nc(C(F)(F)F)cn4C)cc3F)c2n1` [Compound 71, 2-(4-Cyclopropyl-6-Methoxypyrimidin-5-Yl)-8-({2-Fluoro-4-[1-Methyl-4-(Trifluoromethyl)Imidazol-2-Yl]Phenyl}Methyl)Pyrido[2,3-d]Pyrimidin-7-One], for which the half-inhibitory concentration (IC50) in the assay on HCC1806 Ub-PCNA (USP1) (Homo sapiens) lay within 10 to 100 nM. For the same compound, in the assay with MDA-MB-436 cells (Homo sapiens, 168 h), the GI50 was in the range of 10 to 100 nM.

For `COc1ncnc(C2CC2)c1-c1ncc2ccc(=O)n(Cc3ccc(-c4nc(C(F)(F)F)c[nH]4)cc3)c2n1` [Compound 58, 2-(4-Cyclopropyl-6-Methoxypyrimidin-5-Yl)-8-({4-[4-(Trifluoromethyl)-1H-Imidazol-2-Yl]Phenyl}Methyl)Pyrido[2,3-d]Pyrimidin-7-One], in the assay with MDA-MB-436 cells (Homo sapiens, 168 h), the concentration for 50% growth inhibition (GI50) is 10 to 100 nM.

The values are drawn from patent US20240092779A1, “USP1 INHIBITORS AND USES THEREOF” (Zentaur Therapeutics USA Inc., priority 2022, published 2024).
